“Also recorded” adds a separate entry of the source.
How the values were obtained:
[1] = test system: human pluripotent stem cells; test: Accelerated neural induction of hPSCs/hiPSCs into neuroepithelium, 24 hours (NANOG/SOX2/SOX1/PAX6 immunostaining); type: cell-based; conditions: for Effect on NE formation of inhibitors of FGF signaling cascade components: standard neuralizing conditions
Description: Prior to passaging, a recombinant human vitronectin stock solution (500 ug/mL, Peprotech AF-140-09, Rocky Hill, N.J., USA) was diluted 1:100 in DPBS+/+ (ThermoFisher Scientific cat #14040-133, Waltham, Mass., USA) and used to coat 9.6 cm^2 tissue-culture treated wells (Fischer Scientific, Hampton, N.H.) for one hour at room temperature. hPSCs were washed once with 1 mL hypertonic citrate buffer (11) or equivalent and then incubated with 1 mL hypertonic citrate buffer (11) at 37° C. for 6 minutes until colony detachment occurred. The colonies were collected and processed into 25-50 cell fragments by trituration and the dissociation quenched with 5 mL Essential 6 Medium (ThermoFisher Scientific A1516401, Waltham, Mass., USA). Suspensions were collected into 15 mL conical tubes and centrifuged for 1 minute at 200×G. Supernatants were aspirated and pellets resuspended into 1.2 mL Essential 6 Medium (ThermoFisher Scientific A2858501, Waltham, Mass., USA) assuming a 1:6 split ratio. 0.2 mL cultures were seeded onto rhVTN-coated wells containing Essential 8 Medium. Cultures were maintained in Essential 8 Medium with daily media changes and passaged every 3 days.
(§1) Differentiation medium consisting of Essential 6 supplemented with LDN-193189 HCl (500 nM, Selleckchem cat #S7507, Houston, Tex. USA) and BGJ398 (100 nM Selleckchem cat #S2183 Houston, Tex. USA) was combined and distributed 2 mL per vitronectin-coated well of a 6-well plate. hPSCs were dissociated into small clumps (25-50 cells per clump) as indicated above. 0.2 to 0.4 mL cultures were seeded onto rhVTN-coated wells containing differentiation medium.
Conditions were assayed in which the ERK pathway was inhibited at both receptor and downstream intracellular effector levels. The VEGFR2/FGFR2 inhibitor SU5402 was compounded with previously known neurulation conditions containing the ALK2/3 receptor antagonist LDN 193189 and the ALK 4/5/7 receptor antagonist A8-30-1 to observe their combined effect on undifferentiated pluripotent stem cells.
24-hour differentiating cultures were analyzed prior to cell death for various transcription factors associated with pluripotency and NE formation. […] SOX2, common to both hPSCs and NE, was maintained.

[2] = test system: human pluripotent stem cells; test: Accelerated production of neuromesoderm progenitors directly from hPSCs, 24 hours (SOX2/T immunophenotype); type: cell-based
Description: as §1, with “Houston, Tex. USA), BGJ398 (100” for “Houston, Tex. USA) and BGJ398 (100”, “#S2183 Houston, and TX USA), and CHIR 99021 (3 uM, Tocris cat #4423, Bristol UK) was combined” for “#S2183 Houston, Tex. USA) was combined”
The previous scenario utilized a neuroectoderm intermediate for the generation of neuromesoderm. Because it has been shown that neuromesoderm can be derived directly from hPSCs, high levels of WNT signaling were incorporated into the day-1 neuroectoderm conditions to investigate whether this could induce neuromesoderm directly.

day-1 neuroectoderm = test: Caudalization of day-1 neuroectoderm into neuromesoderm; type: cell-based, human; conditions: by day 2
Description: Controversy currently exists surrounding the origin of the most caudal segments of the central nervous system that include the spinal cord. In vitro conditions for generating spinal cord tissue have traditionally relied upon the formation of anterior neural plate expressing SOX1+/FOXG1+/OTX2+/PAX5−/HOXB4− that is caudalized with factors such as FGF, WNT, and retinoic acid to create SOX1+/FOXG1−/OTX2−/PAX5−/HOXB4+ positive cervical spinal cord tissue. […] An additional 24 hours of WNT/FGF signaling converted this population into SOX1−/SOX2+/T+/TBX6−/HOXB4+ cervical-level neuromesoderm (FIG. 13).

day-2 neuromesoderm = test: Conversion of day-2 neuromesoderm into spinal neuroepithelium; type: cell-based, human; conditions: day 3
Description: Day-one Neuromesoderm progenitors were exposed to differentiation medium consisting of Essential 6 supplemented with CHIR 99021 (3 uM, Tocris cat #4423, Bristol UK) and FGF-Basic TS™ (20 ng/mL, Humanzyme cat #HZ-1286, Chicago, Ill. USA) for 24 hours. This day-two neuromesoderm was further exposed to differentiation medium consisting of Essential 6 supplemented with BGJ398 (100 nM Selleckchem cat #52183 Houston, Tex. USA) to create a day-three population of PAX3/SOX1/HOXB4-positive neuroepithelial cells.
It has been shown that retinoic acid signaling is needed to convert neuromesoderm into spinal cord neuroepithelium. […] It has been shown that retinoids exert multiple simultaneous functions in the developing spinal cord, inhibiting FGF signaling, while activating both WNT and SHH signaling. […] This spinal neuroepithelium was further characterized with respect to additional markers and discovered that it was partially PAX3-positive, an early spinal neural plate marker. The day-3 conditions were optimized to maximize PAX3 and it was discovered that moderate WNT signaling was needed in addition to FGF inhibition to derive a pure population of cervical neural plate epithelium homogeneously expression PAX3 (FIG. 18). To investigate the dorso-ventral patterning competency of these retinoid-independent spinal neuroepithelial cells, the day-3 cultures were exposed to SHH signaling. […]

[3] = 24-hour cultures, SU5402 with LDN 193189 and A8-30-1

Question: What does the source list for Cc1c[nH]c(C=C2C(=O)Nc3ccccc32)c1CCC(=O)O [SU5402, 3-[4-Methyl-2-(2-oxo-1,2-dihydro-indol-3-ylidenemethyl)-1H-pyrrol-3-yl]-propionic acid]?
Answer: SOX1-positivity (cells) ([1]; 24-hour cultures, SU5402 compounded with LDN 193189 and A8-30-1): greater than 90%; NANOG positivity compared to undifferentiated control cultures [1, 3]: reduced NANOG positivity; SOX2 expression [1, 3]: maintained; Outcome of continued culture ([1]; additional 48 hours, SU5402 with LDN 193189 and A8-30-1, data not shown): resulted in cell death

Question: O=C(NOC[C@H](O)CO)c1ccc(F)c(F)c1Nc1ccc(I)cc1F [PD0325901, N-[(2R)-2,3-Dihydroxypropoxy]-3,4-difluoro-2-[(2-fluoro-4-iodophenyl)amino]-benzamide] was tested. Which “Effect on NE formation of inhibitors of FGF signaling cascade components” value [1] did it give?
Answer: performed similarly to BGJ398; also recorded: substitutes for SU5402

Question: And the “Replacement of BGJ398 in neural induction” value ([1]; with LDN 193189)?
Answer: fully replaces use of BGJ398

Question: What about the “Replacement of BGJ398 in neuromesoderm formation” value ([2]; with LDN193189 and CHIR99021) of the same compound?
Answer: fully replaces use of BGJ398

Question: Cc1c[nH]c(-c2cnc(NCCNc3ccc(C#N)cn3)nc2-c2ccc(Cl)cc2Cl)n1 [CHIR99021] was tested. Which “HOXB4 expression of day-2 cultures” value ([2]; additional 24 hours incubation after day-1 neuromesoderm induction) did it give?
Answer: upregulated the HOXB4 transcription factor

Question: What about the “Population induced from day-1 neuroectoderm by high WNT signaling” value (day-1 neuroectoderm) of the same compound?
Answer: sufficient to induce a SOX1−/SOX2+/T+/TBX6−/HOXB4− population by day 2

Question: For COc1nccc(-c2c(-c3ccc(F)cc3)ncn2C2CCC(O)CC2)n1 (stereo not drawn) [SB239063], which “Effect on NE formation of inhibitors of FGF signaling cascade components” value [1] is on record?
Answer: had no effect

Question: Which “Induction of SOX1-immunoreactivity when substituted for SU5402 in the inhibitor cocktail” value ([1]; 24 hours, panel of hPSC lines) does the source give for CCN1CCN(c2ccc(Nc3cc(N(C)C(=O)Nc4c(Cl)c(OC)cc(OC)c4Cl)ncn3)cc2)CC1 [BGJ398, 3-(2,6-dichloro-3,5-dimethoxyphenyl)-1-(6-(4-(4-ethylpiperazin-1-yl)-phenylamino)pyrimidin-4-yl)-1-methylurea] here?
Answer: matches or exceeds marker expression levels seen when using SU5402

Question: And the “Population created from day-2 neuromesoderm” value (day-2 neuromesoderm)?
Answer: created a pure population of spinal neuroepithelium lacking evidence of neuromesoderm or somite tissues
